From patent publication US9808433B2, “Combination of a centrally-acting analgesic and a selective cyclooxygenase-2 inhibitor anti-inflammatory agent for the treatment of inflammation and pain in the veterinary field” (FORMEVET S.R.L., priority 2010, dated 2017)

Key:
[1] = target: T1, COX-1 (Canis lupus familiaris, UniProt Q8HZR1); conditions: dog, low therapeutic doses; cited from earlier work
T1 sequence (Q8HZR1 28-603): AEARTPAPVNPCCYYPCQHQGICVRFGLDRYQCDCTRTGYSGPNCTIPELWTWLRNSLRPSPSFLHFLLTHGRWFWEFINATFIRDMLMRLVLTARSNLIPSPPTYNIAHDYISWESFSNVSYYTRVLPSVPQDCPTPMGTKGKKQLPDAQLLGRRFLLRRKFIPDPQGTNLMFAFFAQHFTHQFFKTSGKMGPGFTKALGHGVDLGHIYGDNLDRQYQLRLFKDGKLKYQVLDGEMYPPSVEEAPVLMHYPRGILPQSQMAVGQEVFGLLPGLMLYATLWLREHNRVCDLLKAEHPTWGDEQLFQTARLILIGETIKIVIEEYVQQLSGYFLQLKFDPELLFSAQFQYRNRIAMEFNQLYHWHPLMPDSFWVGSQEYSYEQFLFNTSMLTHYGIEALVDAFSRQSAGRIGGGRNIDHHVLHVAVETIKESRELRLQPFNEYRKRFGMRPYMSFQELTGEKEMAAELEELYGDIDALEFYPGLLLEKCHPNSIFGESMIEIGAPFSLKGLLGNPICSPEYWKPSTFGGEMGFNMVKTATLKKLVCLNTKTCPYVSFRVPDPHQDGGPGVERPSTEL

[2] = test system: inflammatory oedema of the CFA-injected hind paw; test: Complete Freund adjuvant (CFA) induced paw inflammation (oedema) in the rat, plethysmometer; type: in vivo, Sprague-Dawley rats; conditions: for ml (inflamed paw/normal paw), intensity of oedema: day 3 after CFA, mean ± SD
Protocol: An inflammation model extensively used and validated in the rat was used for the study.
Sprague-Dawley rats weighing 200-250 grams were used. The animals were housed in groups of 4 to a cage, at the temperature of 22° C.±2° C., with a light-dark cycle of 12/12-hour and unlimited access to food and water. The animals were used after a week's acclimatisation in the housing facility. Each test group consisted of 8 rats.
Inflammation was induced in one limb of the rat by administering a suspension of complete Freund adjuvant (CFA) containing 0.1 mg/0.1 ml of inactivated mycobacterium tuberculosis (H37Ra, ATCC 25177), in paraffin oil and mannide monooleate. The CFA was injected into the plantar surface of the left hind paw of the rat. This method induces reproducible inflammation characterised by oedema and pain.
All the medicaments were administered 3 days after the inflammation was induced with CFA. The Firocoxib was resuspended in a carrier consisting of 0.5% methocel, and administered orally in the volume of 1 ml at the doses of 2.5 and 5 mg/Kg.
The dose of 2.5 mg/Kg was combined with Tramadol at the dose of 4 mg/Kg. Tramadol dissolved in saline was administered by the intraperitoneal route (i.p., 0.2 ml/100 grams of weight) 30 minutes […] the Firocoxib. Inflammatory oedema was evaluated 1 hour after the Tramadol, corresponding to 90 minutes after the Firocoxib. […] The control animals were treated per os with the carrier, and i.p. with the same volume of saline.
The intensity of the oedema was measured on day 3 after intraplantar administration of CFA, 90 minutes after Firocoxib, corresponding to 1 hour after i.p. administration of Tramadol. We chose to evaluate the oedema 3 days after it was induced, because it is largest at this time. The paw swelling (oedema) was evaluated by measuring the volume of both hind paws using a specific instrument, the plethysmometer (7150 plethysmometer, Basile, Comerio, Italy). The results are expressed as the algebraic difference between the volume in ml of the inflamed paw (injected with CFA) and the normal uninflamed paw: the greater the difference, the larger the oedema present.
The values are the mean±SD of 8/10 rats.
The significance of the anti-inflammatory activity was evaluated with the Analysis of Variance (ANOVA) test, followed by the Bonferroni multiple comparison test. ANOVA test is the most suitable statistical test when more than 2 treatment groups are present. It is a restrictive test because it takes account of the variability of all the trial groups.

[3] = cited from earlier work

| SMILES | inhibition of COX-1 (in words) [1] | anti-inflammatory effect (in words) ([2]; Firocoxib 2.5 mg/kg alone) | ml (inflamed paw/normal paw), intensity of oedema ([2]; Firocoxib 2.5 mg/kg p.o. alone, 90 min after Firocoxib) [mL] | ml (inflamed paw/normal paw), intensity of oedema ([2]; Firocoxib 5 mg/Kg p.o. alone, 90 min after Firocoxib, p < 0.01 vs saline) [mL] | inhibition at 5 mg/kg ([2]; Rattus norvegicus, Firocoxib 5.0 mg/kg alone) [%] | bond with plasma proteins ([3]; in vivo) | elimination half-life ([3]; in vivo) [h] | time to peak plasma concentration ([3]; in vivo) [h] | absorption after oral administration ([3]; oral, regardless of the formulation used) | anti-inflammatory effect (in words) ([2]; Tramadol 4 mg/kg alone) | ml (inflamed paw/normal paw), intensity of oedema ([2]; Tramadol 4 mg/kg i.p. alone, 60 min after Tramadol) [mL] |
| --- | --- | --- | --- | --- | --- | --- | --- | --- | --- | --- | --- |
| CC1(C)OC(=O)C(OCC2CC2)=C1c1ccc(S(C)(=O)=O)cc1 [Firocoxib] | do not significantly inhibit COX-1 | completely lost its anti-inflammatory effect | 0.83 ± 0.05 | 0.42 ± 0.08 | ~50 |  |  |  |  |  |  |
| COc1cccc(C2(O)CCCCC2CN(C)C)c1 (centres unmarked) [Tramadol] |  |  |  |  |  | low | 1.5 to 7 | ≤ 2 | very good absorption | no anti-inflammatory effect | 0.80 ± 0.06 |
